Values of other authors in patent publication US9662296B2, “Pharmaceutical composition comprising bicarbonate salt, and use thereof as a medicament in the treatment and/or prevention of urinary lithiases and related diseases” (ADVICENNE, priority 2010, dated 2017).

Conditions: high doses (30 to 40 grams per day)

Compound | adverse manifestations
O=C([O-])O.[K+] [potassium bicarbonate] | manifestations of metabolic alkalosis or digestive disorders, mainly diarrhoea
O=C([O-])O.[Na+] [sodium bicarbonate] | manifestations of metabolic alkalosis or digestive disorders, mainly diarrhoea
